# Reference: patent US20260274829A1, “NEW E3 UBIQUITIN LIGASE LIGAND, PROTEIN DEGRADATION AGENT AND USE THEREOF” (GLUETACS THERAPEUTICS (SHANGHAI) CO., LTD., priority 2023, published 2026)
# Target: T1, human Cereblon WT GST-tagged protein (Homo sapiens, UniProt Q96SW2)
# T1 construct: purchased CISBIO 64BDCRBNPEH
# Experiment: CRBN binding, HTRF CEREBLON BINDING kit
# Conditions: CRBN binding, HTRF CEREBLON BINDING kit
# In short: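 Binding inhibition was calculated from the 665/620 nm emission ratios, with blank wells and solvent wells as references. Test compounds competed for GST-tagged human Cereblon WT against a Thalidomide-Re reagent paired with GST Eu antibody. Plates were sealed and held at room temperature for 3 hours before the HTRF read.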
# T1 sequence (Q96SW2 whole entry): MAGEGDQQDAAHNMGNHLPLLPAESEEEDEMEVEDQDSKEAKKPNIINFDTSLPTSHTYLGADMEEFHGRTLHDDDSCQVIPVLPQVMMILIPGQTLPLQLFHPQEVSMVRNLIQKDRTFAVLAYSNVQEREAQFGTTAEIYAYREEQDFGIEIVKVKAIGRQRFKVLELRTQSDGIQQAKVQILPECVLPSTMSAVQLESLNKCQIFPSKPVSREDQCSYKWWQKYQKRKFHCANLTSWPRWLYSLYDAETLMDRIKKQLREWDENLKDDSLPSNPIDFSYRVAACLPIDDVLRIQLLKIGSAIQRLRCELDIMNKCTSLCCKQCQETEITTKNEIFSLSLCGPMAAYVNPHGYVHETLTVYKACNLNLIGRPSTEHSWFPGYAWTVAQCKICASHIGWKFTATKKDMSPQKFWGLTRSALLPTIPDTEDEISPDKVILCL
row,Compound,IC50
1,"CN(C)C(=O)c1cc2cnc(Nc3ccc(N4CCC(N(C)Cc5cccc(N6CCC(=O)NC6=O)c5)CC4)cn3)nc2n1C1CCCC1 [GT-06492, 7-cyclopentyl-2-((5-(4-((3-(2,4-dioxotetrahydropyrimidin-1(2H)-yl)benzyl)(methyl)amino)piperidin-1-yl)pyridin-2-yl)amino)-N,N-dimethyl-7H-pyrrolo[2,3-d]pyrimidine-6-carboxamide]",1000 to 1900 nM
2,"CN(C)C(=O)c1cc2cnc(Nc3ccc(N4CCC(N(C)Cc5ccc(N6CCC(=O)NC6=O)cn5)CC4)cn3)nc2n1C1CCCC1 [GT-06493, 7-cyclopentyl-2-((5-(4-(((5-(2,4-dioxotetrahydropyrimidin-1(2H)-yl)pyridin-2-yl)methyl)(methyl)amino)piperidin-1-yl)pyridin-2-yl)amino)-N,N-dimethyl-7H-pyrrolo[2,3-d]pyrimidine-6-carboxamide]",500 to 1000 nM
3,"CC(=O)c1c(C)c2cnc(Nc3ccc(N4CCN(Cc5ccc(C6CCC(=O)NC6=O)cc5)CC4)cn3)nc2n(C2CCCC2)c1=O (stereo not shown) [GT-06575, 3-(4-((4-(6-((6-acetyl-8-cyclopentyl-5-methyl-7-oxo-7,8-dihydropyrido[2,3-d]pyrimidin-2-yl)amino)pyridin-3-yl)piperazin-1-yl)methyl)phenyl)piperidine-2,6-dione]",500 to 1000 nM
4,"CC(=O)c1c(C)c2cnc(Nc3ccc(N4CCN(Cc5cccc(N6CCC(=O)NC6=O)c5)CC4)cn3)nc2n(C2CCCC2)c1=O [GT-06577, 1-(3-((4-(6-((6-acetyl-8-cyclopentyl-5-methyl-7-oxo-7,8-dihydropyrido[2,3-d]pyrimidin-2-yl)amino)pyridin-3-yl)piperazin-1-yl)methyl)phenyl)dihydropyrimidine-2,4(1H,3H)-dione]",1000 to 1900 nM
5,"CC(=O)c1c(C)c2cnc(Nc3ccc(N4CCN(Cc5ccc(N6CCC(=O)NC6=O)cn5)CC4)cn3)nc2n(C2CCCC2)c1=O [GT-06578, 1-(6-((4-(6-((6-acetyl-8-cyclopentyl-5-methyl-7-oxo-7,8-dihydropyrido[2,3-d]pyrimidin-2-yl)amino)pyridin-3-yl)piperazin-1-yl)methyl)pyridin-3-yl)dihydropyrimidine-2,4(1H,3H)-dione]",1000 to 1900 nM
6,"CC(=O)c1c(C)c2cnc(Nc3ccc(N4CCC(N5CCN(Cc6ccc(C7CCC(=O)NC7=O)cc6)CC5)CC4)cn3)nc2n(C2CCCC2)c1=O (stereo not shown) [GT-06659, 3-(4-((4-(1-(6-((6-acetyl-8-cyclopentyl-5-methyl-7-oxo-7,8-dihydropyrido[2,3-d]pyrimidin-2-yl)amino)pyridin-3-yl)piperidin-4-yl)piperazin-1-yl)methyl)phenyl)piperidine-2,6-dione]",500 to 1000 nM
7,"Cc1nc2c(F)cc(-c3nc(Nc4ccc(CN5CCN(Cc6ccc(C7CCC(=O)NC7=O)cc6)CC5)cn4)ncc3F)cc2n1C(C)C (stereo not shown) [GT-06664, 3-(4-((4-((6-((5-fluoro-4-(4-fluoro-1-isopropyl-2-methyl-1H-benzo[d]imidazol-6-yl)pyrimidin-2-yl)amino)pyridin-3-yl)methyl)piperazin-1-yl)methyl)phenyl)piperidine-2,6-dione]",500 to 1000 nM
8,"Cc1nc2c(F)cc(-c3nc(Nc4ccc(CN5CCN(Cc6ccc(N7CCC(=O)NC7=O)cc6)CC5)cn4)ncc3F)cc2n1C(C)C [GT-06665, 1-(4-((4-((6-((5-fluoro-4-(4-fluoro-1-isopropyl-2-methyl-1H-benzo[d]imidazol-6-yl)pyrimidin-2-yl)amino)pyridin-3-yl)methyl)piperazin-1-yl)methyl)phenyl)dihydropyrimidine-2,4(1H,3H)-dione]",1000 to 1900 nM
9,"Cc1nc2c(F)cc(-c3nc(Nc4ccc(CN5CCN(Cc6cccc(N7CCC(=O)NC7=O)c6)CC5)cn4)ncc3F)cc2n1C(C)C [GT-06666, 1-(3-((4-((6-((5-fluoro-4-(4-fluoro-1-isopropyl-2-methyl-1H-benzo[d]imidazol-6-yl)pyrimidin-2-yl)amino)pyridin-3-yl)methyl)piperazin-1-yl)methyl)phenyl)dihydropyrimidine-2,4(1H,3H)-dione]",< 500 nM
10,"Cc1nc2c(F)cc(-c3nc(Nc4ccc(CN5CCN(Cc6ccc(N7CCC(=O)NC7=O)cn6)CC5)cn4)ncc3F)cc2n1C(C)C [GT-06667, 1-(6-((4-((6-((5-fluoro-4-(4-fluoro-1-isopropyl-2-methyl-1H-benzo[d]imidazol-6-yl)pyrimidin-2-yl)amino)pyridin-3-yl)methyl)piperazin-1-yl)methyl)pyridin-3-yl)dihydropyrimidine-2,4(1H,3H)-dione]",1000 to 1900 nM
11,"Cc1nc2c(F)cc(-c3nc(Nc4ccc(N5CCC(N(C)Cc6ccc(C7CCC(=O)NC7=O)cc6)CC5)cn4)ncc3F)cc2n1C(C)C (stereo not shown) [GT-06735, 3-(4-(((1-(6-((5-fluoro-4-(4-fluoro-1-isopropyl-2-methyl-1H-benzo[d]imidazol-6-yl)pyrimidin-2-yl)amino)pyridin-3-yl)piperidin-4-yl)(methyl)amino)methyl)phenyl)piperidine-2,6-dione]",500 to 1000 nM
12,"Cc1nc2c(F)cc(-c3nc(Nc4ccc(N5CCC(N6CCN(Cc7ccc(N8CCC(=O)NC8=O)cc7)CC6)CC5)cn4)ncc3F)cc2n1C(C)C [GT-06739, 1-(4-((4-(1-(6-((5-fluoro-4-(4-fluoro-1-isopropyl-2-methyl-1H-benzo[d]imidazol-6-yl)pyrimidin-2-yl)amino)pyridin-3-yl)piperidin-4-yl)piperazin-1-yl)methyl)phenyl)dihydropyrimidine-2,4(1H,3H)-dione]",500 to 1000 nM
13,"Cc1nc2c(F)cc(-c3nc(Nc4ccc(N5CCC(N6CCN(Cc7cccc(N8CCC(=O)NC8=O)c7)CC6)CC5)cn4)ncc3F)cc2n1C(C)C [GT-06740, 1-(3-((4-(1-(6-((5-fluoro-4-(4-fluoro-1-isopropyl-2-methyl-1H-benzo[d]imidazol-6-yl)pyrimidin-2-yl)amino)pyridin-3-yl)piperidin-4-yl)piperazin-1-yl)methyl)phenyl)dihydropyrimidine-2,4(1H,3H)-dione]",500 to 1000 nM
14,"Cc1nc2c(F)cc(-c3nc(Nc4ccc(N5CCC(N6CCN(Cc7ccc(N8CCC(=O)NC8=O)cn7)CC6)CC5)cn4)ncc3F)cc2n1C(C)C [GT-06741, 1-(6-((4-(1-(6-((5-fluoro-4-(4-fluoro-1-isopropyl-2-methyl-1H-benzo[d]imidazol-6-yl)pyrimidin-2-yl)amino)pyridin-3-yl)piperidin-4-yl)piperazin-1-yl)methyl)pyridin-3-yl)dihydropyrimidine-2,4(1H,3H)-dione]",500 to 1000 nM
15,"Cc1nc2c(F)cc(-c3nc(Nc4ccc(N5CCC(N6CCN(Cc7cccc(NC8CCC(=O)NC8=O)c7)CC6)CC5)cn4)ncc3F)cc2n1C(C)C (stereo not shown) [GT-06743, 3-((3-((4-(1-(6-((5-fluoro-4-(4-fluoro-1-isopropyl-2-methyl-1H-benzo[d]imidazol-6-yl)pyrimidin-2-yl)amino)pyridin-3-yl)piperidin-4-yl)piperazin-1-yl)methyl)phenyl)amino)piperidine-2,6-dione]",1000 to 1900 nM
16,"Nc1nc(Nc2ccc(S(=O)(=O)N3CCN(Cc4ccc(C5CCC(=O)NC5=O)cc4)CC3)cc2)nn1C(=O)c1c(F)cccc1F (stereo not shown) [GT-06750, 3-(4-((4-((4-((5-amino-1-(2,6-difluorobenzoyl)-1H-1,2,4-triazol-3-yl)amino)phenyl)sulfonyl)piperazin-1-yl)methyl)phenyl)piperidine-2,6-dione]",500 to 1000 nM
17,"Nc1nc(Nc2ccc(S(=O)(=O)N3CCN(Cc4ccc(N5CCC(=O)NC5=O)cc4)CC3)cc2)nn1C(=O)c1c(F)cccc1F [GT-06751, 1-(4-((4-((4-((5-amino-1-(2,6-difluorobenzoyl)-1H-1,2,4-triazol-3-yl)amino)phenyl)sulfonyl)piperazin-1-yl)methyl)phenyl)dihydropyrimidine-2,4(1H,3H)-dione]",1000 to 1900 nM
18,"Cc1cc(S(=O)(=O)N2CCN(Cc3cccc(N4CCC(=O)NC4=O)c3)CC2)ccc1Nc1ncc(Br)c(Nc2cccc(F)c2C(N)=O)n1 [GT-06832, 2-((5-bromo-2-((4-((4-(3-(2,4-dioxotetrahydropyrimidin-1(2H)-yl)benzyl)piperazin-1-yl)sulfonyl)-2-methylphenyl)amino)pyrimidin-4-yl)amino)-6-fluorobenzamide]",< 500 nM
19,"Cc1nc2c(F)cc(-c3nc(Nc4ccc(N5CCC(N(C)Cc6ccc(N7CCC(=O)NC7=O)cc6)CC5)cn4)ncc3F)cc2n1C(C)C [GT-06838, 1-(4-(((1-(6-((5-fluoro-4-(4-fluoro-1-isopropyl-2-methyl-1H-benzo[d]imidazol-6-yl)pyrimidin-2-yl)amino)pyridin-3-yl)piperidin-4-yl)(methyl)amino)methyl)phenyl)dihydropyrimidine-2,4(1H,3H)-dione]",500 to 1000 nM
20,"Cc1nc2c(F)cc(-c3nc(Nc4ccc(N5CCC(N(C)Cc6cccc(N7CCC(=O)NC7=O)c6)CC5)cn4)ncc3F)cc2n1C(C)C [GT-06839, 1-(3-(((1-(6-((5-fluoro-4-(4-fluoro-1-isopropyl-2-methyl-1H-benzo[d]imidazol-6-yl)pyrimidin-2-yl)amino)pyridin-3-yl)piperidin-4-yl)(methyl)amino)methyl)phenyl)dihydropyrimidine-2,4(1H,3H)-dione]",1000 to 1900 nM
21,"CN(Cc1ccc(N2CCC(=O)NC2=O)cn1)C1CCN(c2ccc(Nc3ncc4nc(Nc5ccccc5)n(C5CCCC5)c4n3)cc2)CC1 [GT-07093, 1-(6-(((1-(4-((9-cyclopentyl-8-(phenylamino)-9H-purin-2-yl)amino)phenyl)piperidin-4-yl)(methyl)amino)methyl)pyridin-3-yl)dihydropyrimidine-2,4(1H,3H)-dione]",500 to 1000 nM
22,"CN(Cc1cccc(NC2CCC(=O)NC2=O)c1)C1CCN(c2ccc(Nc3ncc4nc(Nc5ccccc5)n(C5CCCC5)c4n3)cc2)CC1 (stereo not shown) [GT-07094, 3-((3-(((1-(4-((9-cyclopentyl-8-(phenylamino)-9H-purin-2-yl)amino)phenyl)piperidin-4-yl)(methyl)amino)methyl)phenyl)amino)piperidine-2,6-dione]",1000 to 1900 nM
